Laboratory results taken from patent US12129235B2, “TSPO binders” (The University Court of the University of Glasgow, priority 2018, dated 2024).

Experiments:
[1] = Dosimetry from whole-body mouse PET, OLINDA/EXM adult human phantom; type: in vivo, mice; settings: for Effective Dose / Estimated Absorbed Dose, Adrenals / Estimated Absorbed Dose, Brain / Estimated Absorbed Dose, Breasts / Estimated Absorbed Dose, Gallbladder Wall / Estimated Absorbed Dose, Heart Wall / Estimated Absorbed Dose, Kidneys / Estimated Absorbed Dose, LLI Wall / Estimated Absorbed Dose, Liver / Estimated Absorbed Dose, Lungs / Estimated Absorbed Dose, Muscle / Estimated Absorbed Dose, Osteogenic Cells / Estimated Absorbed Dose, Ovaries / Estimated Absorbed Dose, Pancreas / Estimated Absorbed Dose, Red Marrow / Estimated Absorbed Dose, Skin / Estimated Absorbed Dose, Small Intestine / Estimated Absorbed Dose, Spleen / Estimated Absorbed Dose, Stomach Wall / Estimated Absorbed Dose, Thymus / Estimated Absorbed Dose, Thyroid / Estimated Absorbed Dose, Total Body / Estimated Absorbed Dose, ULI Wall / Estimated Absorbed Dose, Urinary Bladder Wall / Estimated Absorbed Dose, Uterus / Estimated Absorbed Dose, Testes: adult human phantom
Experimental: 13 PET scans were performed with ^18F-LW223 (mean injected radioactivity of 19.55±2.1 MBq). Scans were acquired following i.v. bolus injection of ^18F-LW223 via tail vein or femoral vein shunt (invasive kinetic modelling experiments with β-probe automatic blood sampler) in rats. Test-retest scans were obtained in three rats following i.v. bolus of the radiotracer, with two weeks interval between test and retest imaging sessions. […] These scans were compared to baseline scans where no PK11195 was used. For displacement studies, rats received i.v. administration of ^18F-LW223 and scanned continuously for 120 min. […] A male and female mouse were initially used to derive the dosimetry estimates for ^18F-LW223 over a 4 h dynamic scan, followed by additional mice in a further study (in a study with a mean injected radioactivity of 10.83±5.6 MBq).
The following organs were identified as source organs: brain, heart, lungs, gallbladder, liver, gut, adrenals, kidneys and bladder. A whole-body VOI was drawn around the animal body and was used for quantification of whole-body remainder activity as whole-body activity minus source organs activity. At each time point, the measured activity of the source organs was expressed as the percent injected dose (% ID).
The residence time T, defined as the ratio of accumulated activity in the target organ (A) and injected activity (A0); τ=Ā/A0, was calculated as the area under the curve of the tissue time-activity curve normalized to % ID from time zero to infinity. The trapezoidal method was used for estimating T and after the last measured time point, it was assumed that the radiotracer underwent only physical decay with no biological elimination from the source organ. Calculated T were normalized for differences in mouse and human organ weights as a percentage of total body weight (based on data known from Khanuja et al.; Bielohuby et al.; Stabin et al.; Hindorf et al.; and Hui et al.), and entered into OLINDA/EXM 1.0 software, which was used to estimate organ doses and effective doses according to the male or female model implemented in OLINDA/EXM 1.0.

[2] = target: TSPO (Homo sapiens, UniProt P30536); assay: ^18F-LW223 human autoradiography (stroke and diseased coronary tissue); type: binding; parameters: Paraffin embedded human deep brain stoke tissue and diseased coronary tissue sections; from tissue; host or cells: human deep brain stroke tissue and diseased coronary tissue sections
TSPO, sequence (P30536 whole entry): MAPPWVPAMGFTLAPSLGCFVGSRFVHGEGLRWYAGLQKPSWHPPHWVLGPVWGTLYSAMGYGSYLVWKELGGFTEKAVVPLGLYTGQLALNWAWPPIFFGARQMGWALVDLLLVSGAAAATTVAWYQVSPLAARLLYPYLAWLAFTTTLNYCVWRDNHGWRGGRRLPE
Description: Slides were washed twice with buffer before being air dried and exposed to a Fujifilm BAS-IP MS 2040 phosphor screen (Fujifilm, Japan). Phosphor screens were imaged on a Fujifilm FLA5100 imaging plate reader (Fujifilm, Japan). Global regions of interest were drawn around whole tissue sections to calculate % SB. To calculate target:non-target ratios, regional sampling analysis was used within the same tissue in the highest and lowest uptake areas.

[3] = Female, additional work with further mice
[4] = Male, additional work with further mice

Effective Dose [1, 3]: 2.37E−02 mSv/MBq
Estimated Absorbed Dose, Adrenals [1, 3]: 3.54E−02 mGy/MBq
Estimated Absorbed Dose, Brain [1, 3]: 5.49E−03 mGy/MBq
Estimated Absorbed Dose, Breasts [1, 3]: 8.51E−03 mGy/MBq
Estimated Absorbed Dose, Gallbladder Wall [1, 3]: 2.40E−02 mGy/MBq
Estimated Absorbed Dose, Heart Wall [1, 3]: 1.80E−02 mGy/MBq
Estimated Absorbed Dose, Kidneys [1, 3]: 1.48E−02 mGy/MBq
Estimated Absorbed Dose, LLI Wall [1, 3]: 8.94E−02 mGy/MBq
Estimated Absorbed Dose, Liver [1, 3]: 1.88E−02 mGy/MBq
Estimated Absorbed Dose, Lungs [1, 3]: 3.10E−02 mGy/MBq
Estimated Absorbed Dose, Muscle [1, 3]: 9.70E−03 mGy/MBq
Estimated Absorbed Dose, Osteogenic Cells [1, 3]: 1.52E−02 mGy/MBq
Estimated Absorbed Dose, Ovaries [1, 3]: 1.63E−02 mGy/MBq
Estimated Absorbed Dose, Pancreas [1, 3]: 1.25E−02 mGy/MBq
Estimated Absorbed Dose, Red Marrow [1, 3]: 9.72E−03 mGy/MBq
Estimated Absorbed Dose, Skin [1, 3]: 7.33E−03 mGy/MBq
Estimated Absorbed Dose, Small Intestine [1, 3]: 1.29E−02 mGy/MBq
Estimated Absorbed Dose, Spleen [1, 3]: 1.10E−02 mGy/MBq
Estimated Absorbed Dose, Stomach Wall [1, 3]: 1.14E−02 mGy/MBq
Estimated Absorbed Dose, Thymus [1, 3]: 1.06E−02 mGy/MBq
Estimated Absorbed Dose, Thyroid [1, 3]: 8.89E−03 mGy/MBq
Estimated Absorbed Dose, Total Body [1, 3]: 1.06E−02 mGy/MBq
Estimated Absorbed Dose, ULI Wall [1, 3]: 1.24E−02 mGy/MBq
Estimated Absorbed Dose, Urinary Bladder Wall [1, 3]: 1.49E−02 mGy/MBq
Estimated Absorbed Dose, Uterus [1, 3]: 1.28E−02 mGy/MBq
Effective Dose ([1]; Female, initial mouse study): 1.84E−02 mSv/MBq
Estimated Absorbed Dose, Adrenals ([1]; Female, initial mouse study): 4.38E−02 mGy/MBq
Estimated Absorbed Dose, Brain ([1]; Female, initial mouse study): 8.38E−03 mGy/MBq
Estimated Absorbed Dose, Breasts ([1]; Female, initial mouse study): 1.16E−02 mGy/MBq
Estimated Absorbed Dose, Gallbladder Wall ([1]; Female, initial mouse study): 2.80E−02 mGy/MBq
Estimated Absorbed Dose, Heart Wall ([1]; Female, initial mouse study): 3.96E−02 mGy/MBq
Estimated Absorbed Dose, Kidneys ([1]; Female, initial mouse study): 2.67E−02 mGy/MBq
Estimated Absorbed Dose, LLI Wall ([1]; Female, initial mouse study): 1.61E−02 mGy/MBq
Estimated Absorbed Dose, Liver ([1]; Female, initial mouse study): 2.04E−02 mGy/MBq
Estimated Absorbed Dose, Lungs ([1]; Female, initial mouse study): 4.52E−02 mGy/MBq
Estimated Absorbed Dose, Muscle ([1]; Female, initial mouse study): 1.27E−02 mGy/MBq
Estimated Absorbed Dose, Osteogenic Cells ([1]; Female, initial mouse study): 2.01E−02 mGy/MBq
Estimated Absorbed Dose, Ovaries ([1]; Female, initial mouse study): 1.71E−02 mGy/MBq
Estimated Absorbed Dose, Pancreas ([1]; Female, initial mouse study): 1.68E−02 mGy/MBq
Estimated Absorbed Dose, Red Marrow ([1]; Female, initial mouse study): 1.25E−02 mGy/MBq
Estimated Absorbed Dose, Skin ([1]; Female, initial mouse study): 9.71E−03 mGy/MBq
Estimated Absorbed Dose, Small Intestine ([1]; Female, initial mouse study): 3.97E−02 mGy/MBq
Estimated Absorbed Dose, Spleen ([1]; Female, initial mouse study): 1.51E−02 mGy/MBq
Estimated Absorbed Dose, Stomach Wall ([1]; Female, initial mouse study): 1.54E−02 mGy/MBq
Estimated Absorbed Dose, Thymus ([1]; Female, initial mouse study): 1.47E−02 mGy/MBq
Estimated Absorbed Dose, Thyroid ([1]; Female, initial mouse study): 1.19E−02 mGy/MBq
Estimated Absorbed Dose, Total Body ([1]; Female, initial mouse study): 1.40E−02 mGy/MBq
Estimated Absorbed Dose, ULI Wall ([1]; Female, initial mouse study): 1.89E−02 mGy/MBq
Estimated Absorbed Dose, Urinary Bladder Wall ([1]; Female, initial mouse study): 1.51E−02 mGy/MBq
Estimated Absorbed Dose, Uterus ([1]; Female, initial mouse study): 1.67E−02 mGy/MBq
Effective Dose [1, 4]: 2.05E−02 mSv/MBq
Estimated Absorbed Dose, Adrenals [1, 4]: 2.22E−02 mGy/MBq
Estimated Absorbed Dose, Brain [1, 4]: 5.89E−03 mGy/MBq
Estimated Absorbed Dose, Breasts [1, 4]: 7.18E−03 mGy/MBq
Estimated Absorbed Dose, Gallbladder Wall [1, 4]: 2.01E−02 mGy/MBq
Estimated Absorbed Dose, Heart Wall [1, 4]: 2.03E−02 mGy/MBq
Estimated Absorbed Dose, Kidneys [1, 4]: 1.57E−02 mGy/MBq
Estimated Absorbed Dose, LLI Wall [1, 4]: 7.82E−02 mGy/MBq
Estimated Absorbed Dose, Liver [1, 4]: 1.30E−02 mGy/MBq
Estimated Absorbed Dose, Lungs [1, 4]: 3.10E−02 mGy/MBq
Estimated Absorbed Dose, Muscle [1, 4]: 8.04E−03 mGy/MBq
Estimated Absorbed Dose, Osteogenic Cells [1, 4]: 1.20E−02 mGy/MBq
Estimated Absorbed Dose, Pancreas [1, 4]: 1.03E−02 mGy/MBq
Estimated Absorbed Dose, Red Marrow [1, 4]: 8.22E−03 mGy/MBq
Estimated Absorbed Dose, Skin [1, 4]: 6.09E−03 mGy/MBq
Estimated Absorbed Dose, Small Intestine [1, 4]: 1.11E−02 mGy/MBq
Estimated Absorbed Dose, Spleen [1, 4]: 9.11E−03 mGy/MBq
Estimated Absorbed Dose, Stomach Wall [1, 4]: 9.42E−03 mGy/MBq
Estimated Absorbed Dose, Testes [1, 4]: 7.70E−03 mGy/MBq
Estimated Absorbed Dose, Thymus [1, 4]: 8.97E−03 mGy/MBq
Estimated Absorbed Dose, Thyroid [1, 4]: 7.90E−03 mGy/MBq
Estimated Absorbed Dose, Total Body [1, 4]: 8.85E−03 mGy/MBq
Estimated Absorbed Dose, ULI Wall [1, 4]: 9.96E−03 mGy/MBq
Estimated Absorbed Dose, Urinary Bladder Wall [1, 4]: 1.16E−02 mGy/MBq
Effective Dose ([1]; Male, initial mouse study): 1.53E−02 mSv/MBq
Estimated Absorbed Dose, Adrenals ([1]; Male, initial mouse study): 3.72E−02 mGy/MBq
Estimated Absorbed Dose, Brain ([1]; Male, initial mouse study): 7.01E−03 mGy/MBq
Estimated Absorbed Dose, Breasts ([1]; Male, initial mouse study): 9.21E−03 mGy/MBq
Estimated Absorbed Dose, Gallbladder Wall ([1]; Male, initial mouse study): 2.42E−02 mGy/MBq
Estimated Absorbed Dose, Heart Wall ([1]; Male, initial mouse study): 3.07E−02 mGy/MBq
Estimated Absorbed Dose, Kidneys ([1]; Male, initial mouse study): 2.38E−02 mGy/MBq
Estimated Absorbed Dose, LLI Wall ([1]; Male, initial mouse study): 1.28E−02 mGy/MBq
Estimated Absorbed Dose, Liver ([1]; Male, initial mouse study): 1.56E−02 mGy/MBq
Estimated Absorbed Dose, Lungs ([1]; Male, initial mouse study): 3.57E−02 mGy/MBq
Estimated Absorbed Dose, Muscle ([1]; Male, initial mouse study): 1.02E−02 mGy/MBq
Estimated Absorbed Dose, Osteogenic Cells ([1]; Male, initial mouse study): 1.54E−02 mGy/MBq
Estimated Absorbed Dose, Ovaries ([1]; Male, initial mouse study): 1.40E−02 mGy/MBq
Estimated Absorbed Dose, Pancreas ([1]; Male, initial mouse study): 1.35E−02 mGy/MBq
Estimated Absorbed Dose, Red Marrow ([1]; Male, initial mouse study): 1.02E−02 mGy/MBq
Estimated Absorbed Dose, Skin ([1]; Male, initial mouse study): 7.82E−03 mGy/MBq
Estimated Absorbed Dose, Small Intestine ([1]; Male, initial mouse study): 3.38E−02 mGy/MBq
Estimated Absorbed Dose, Spleen ([1]; Male, initial mouse study): 1.19E−02 mGy/MBq
Estimated Absorbed Dose, Stomach Wall ([1]; Male, initial mouse study): 1.23E−02 mGy/MBq
Estimated Absorbed Dose, Testes ([1]; Male, initial mouse study): 9.46E−03 mGy/MBq
Estimated Absorbed Dose, Thymus ([1]; Male, initial mouse study): 1.16E−02 mGy/MBq
Estimated Absorbed Dose, Thyroid ([1]; Male, initial mouse study): 1.02E−02 mGy/MBq
Estimated Absorbed Dose, Total Body ([1]; Male, initial mouse study): 1.12E−02 mGy/MBq
Estimated Absorbed Dose, ULI Wall ([1]; Male, initial mouse study): 1.52E−02 mGy/MBq
Estimated Absorbed Dose, Urinary Bladder Wall ([1]; Male, initial mouse study): 1.37E−02 mGy/MBq
critical organ ([1]; additional work with further mice): lower intestinal wall
whole-body effective dose ([1]; female phantom, additional work with further mice (Table 2)): 23.7 μSv/MBq
whole-body effective dose ([1]; female phantom, initial mouse study (Table 1)): 18.4 μSv/MBq
critical organ ([1]; initial mouse study): adrenal gland
whole-body effective dose ([1]; male phantom, additional work with further mice (Table 2)): 20.5 μSv/MBq
whole-body effective dose ([1]; male phantom, initial mouse study (Table 1)): 15.3 μSv/MBq
blocking of ^18F-LW223 binding ([2]; deep brain stroke tissue, blocking with PK11195 30 μM): could not be sufficiently blocked
target:non-target ratio ([2]; diseased coronary tissue): 4.5
% specific binding (% SB) ([2]; diseased coronary tissue, blocking with LW223 10 μM): 88.1±3.4%
% specific binding (% SB) ([2]; diseased coronary tissue, blocking with PK11195 10 μM): 75.3±3.2%
target:non-target ratio ([2]; stroke tissue): 7.5
% specific binding (% SB) ([2]; stroke tissue, blocking with LW223 10 μM): 42.5±7.0%
SMILES: CC[C@@H](C)N(C)C(=O)c1nc2ccccc2c(-c2ccccc2)c1C[18F] [^18F-LW223, (R)-(N-sec-Butyl)-3-[19-fluoro]-methyl-N-methyl-4-phenylquinoline-2-carboxamide]
